Results reported in US5298488A, “CM-chitin derivatives and use thereof” (Fuji Photo Film Co., Ltd., priority 1990, dated 1994).
No end group written: not given here. CM‑Chitin = carboxymethyl chitin

Columns and labels:
vitronectin = test: Cell adhesion-inhibitory test against vitronectin (competitive assay, number of adhered cells); assay type: cell-based, human; conditions: endothelium cells of blood vessel, 37° C., one hour, 0 control 249
Source text: (§1) A method for determining the activity of the CM-chitin derivatives of the present invention for inhibiting adhesion of cells to fibronectin or vitronectin will be described below. The competitive assays used herein have widely been employed tin the field of biochemistry and are detailed in, for instance, "Method in Enzymology", 1981, 82, pp. 803-831; and J. P. KOKAI Nos. Hei 1-309682 and Hei 2-174797.
(§2) Commercially available fibroneotin (derived from human; purchased from Seikaqaku Kogyo K. K.) and vitronectin (derived from human; purchased from Funakoshi Co., Ltd.) each was diluted to 1.0 μ1/ml and 2.0 μ1/ml with PBS (NaH2 PO4 0.005 M+NaCl 0.07 M), 0.5 ml of the resulting diluted solution was dispensed into a plastic plate having 24 wells and incubated at 37° C. overnight to perform coating of the plate. Then bovine serum albumin (BSA 1%) was added followed by incubation at 37° C. for one hour for inhibiting the occurrence of nonspecific adsorption, then washing with PBS in the usual manner and sufficient drainage to give an adsorption plate.
[…] Each of the solutions (0.25 ml) was dispensed to the plate prepared above, 0.25 ml of a suspension of endothelium cells of blood vessel (4×10^6 cells/ml) was added to the plate and incubated at 37° C. for one hour to thus cause cohesion of the cells. The plate was washed three times with DMEM medium to remove non-adhesive cells, then the adhered cells were peeled off with a 0.025% EDTA trypsin solution and stained with a 2% Trypan Blue solution to determine the number of the adhered cells.

fibronectin = test: Cell adhesion-inhibitory test against fibronectin (competitive assay, number of adhered cells); assay type: cell-based, human; conditions: endothelium cells of blood vessel, 37° C., one hour, 0 mg/ml control 160
Source text: as §1, §2
A CM-chitin derivative obtained through lyophilization was diluted with Dulbecco's Modified Eagles Medium (hereunder referred to as "DMEM") to give solutions of the CM-chitin derivative having concentrations of 0, 0.25, 0.5, 1.0 and 1.5 mg/ml respectively. Each of the solutions (0.25 ml) was dispensed to the plate prepared above, 0.25 ml of a suspension of endothelium cells of blood vessel (4×10^6 cells/ml) was added to the plate and incubated at 37° C. for one hour to thus cause cohesion of the cells. The plate was washed three times with DMEM medium to remove non-adhesive cells, then the adhered cells were peeled off with a 0.025% EDTA trypsin solution and stained with a 2% Trypan Blue solution to determine the number of the adhered cells.

[1] = test system: human plasma rich in platelet; test: Platelet coagulation-inhibitory activity in vitro, transmittance by aggregometer; assay type: cell-based; conditions: 37° C., 3 minutes preincubation; for Platelet Coagulation-Inhibitory Action IC50, ADP Stimulation: ADP stimulation (50 μM ADP solution); for Platelet Coagulation-Inhibitory Action IC50, Collagen Stimulation: collagen stimulation (200 μg/ml collagen solution)
Description: The platelet coagulation-inhibitory effect of the CM-chitin derivative of the present invention was assayed, in vitro, using human plasma rich in platelet. The experimental method will be described below.
To fresh human blood, there was added 1/9 volume of a 3.8% sodium citrate solution, the resulting mixture was centrifuged (1000 rpm; for 10 minutes) and the upper layer was separated as a plasma rich in platelet. A lyophilized CM-chitin derivative was dissolved in physiological saline to give a plurality of solutions having various concentrations ranging from 0 to 1.5 mg/ml. Each of the solutions (25 μ1) was added to 200 µl of the plasma, incubated at 37° C. for 3 minutes, then a 50 μM of ADP (adenosine diphosphate) solution or a 200 μg/ml collagen solution was added to determine the extent of coagulation in terms of transmittance determined by an aggregometer.
Rate of Coagulation Inhibition=(1-T/T .)×100%
T . : transmittance observed when a salt of CM-chitin derivative was not added.
T : transmittance observed when a salt of CM-chitin derivative was added.

[2] = concentration 10 mg/ml (so in the source)
[3] = concentration 50 mg/ml (so in the source)
[4] = concentration 100 mg/ml (so in the source)
[5] = concentration 300 mg/ml (so in the source)

| Compound | Cell Adhesion-Inhibitory effect Against Vitronectin (number of adhered cells) (vitronectin; [2]) [cell/well] | Cell Adhesion-Inhibitory effect Against Vitronectin (number of adhered cells) (vitronectin; [3]) [cell/well] | Cell Adhesion-Inhibitory effect Against Vitronectin (number of adhered cells) (vitronectin; [4]) [cell/well] | Cell Adhesion-Inhibitory effect Against Vitronectin (number of adhered cells) (vitronectin; [5]) [cell/well] | Cell Adhesion-Inhibitory effect Against Fibronectin (number of adhered cells) (fibronectin; concentration 0.5 mg/ml) [cell/well] | Cell Adhesion-Inhibitory effect Against Fibronectin (number of adhered cells) (fibronectin; concentration 1.0 mg/ml) [cell/well] | Cell Adhesion-Inhibitory effect Against Fibronectin (number of adhered cells) (fibronectin; concentration 1.5 mg/ml) [cell/well] | Cell Adhesion-Inhibitory effect Against Fibronectin (number of adhered cells) (fibronectin; concentration .25 mg/ml) [cell/well] | Platelet Coagulation-Inhibitory Action IC50, ADP Stimulation [1] [mg/L] | Platelet Coagulation-Inhibitory Action IC50, Collagen Stimulation [1] [mg/L] |
| --- | --- | --- | --- | --- | --- | --- | --- | --- | --- | --- |
| N=C(N)NCCC[C@H](N)C(=O)NCC(=O)N[C@@H](CC(=O)O)C(=O)O [ArgGlyAsp, H--(Arg--Gly--Asp)--OH, reference compound] | 171 | 132 | 104 | 73 | 162 | 141 | 83 | 157 | 27 | 22 |
| CM-Chitin Arg-Gly-Asp-Ser (RGDS; also: conjugated to CM-chitin) [CM--chitin derivative-18] | 125 | 83 | 56 | 44 | 101 | 75 | 52 | 133 | 21 | 10 |
| CM-Chitin Gly-Arg-Gly-Asp-Ser (GRGDS; also: conjugated to CM-chitin) [CM--chitin derivative-7] | 143 | 85 | 79 | 55 | 98 | 84 | 71 | 119 | 30 | 16 |
| CM-Chitin-Arg-Gly-Asp-Ser ({CM‑Chitin}-RGDS) [CM--chitin derivative-1, rate of introduction of Arg-Gly-Asp-Ser fragments about 10%] | 148 | 89 | 72 | 41 | 106 | 79 | 69 | 131 | 15 | 10 |
